Assay results: patent publication US6682739B1, “Methods of inhibiting osteoclastogenesis” (The Trustees of the University of Pennsylvania, priority 1999, dated 2004)
Positions of bridges follow the written chain, without caps; N, C: chain ends. No end group written: not given here.

How the values were obtained:
[1] = system: TRANCE-induced marrow cultures (RANK Ligand/RANK interaction); experiment: TRANCE-induced marrow cultures; assay type: cell-based; settings: reciprocal dose-dependence of WP9QY and TRANCE
[2] = system: TNF-α receptor; settings: L929 lymphocytes; cited from earlier work
[3] = system: osteoclast formation (osteoclastogenesis); settings: co-culture induced by 1alpha,25-dihydroxyvitamin D3 and PGE2
[4] = target: T1, TNF (UniProt P01375 77-233); experiment: inhibition of the TNF/TNF receptor interaction; format not described in Example 1
T1 construct: also called TNF-alpha; Tumor Necrosis Factor

[5] = system: osteoclastogenesis and associated bone resorption; settings: administration in vivo; animal models that mimic osteopenic disorders; cited from earlier work

T1 sequence (P01375 77-233 limits assumed): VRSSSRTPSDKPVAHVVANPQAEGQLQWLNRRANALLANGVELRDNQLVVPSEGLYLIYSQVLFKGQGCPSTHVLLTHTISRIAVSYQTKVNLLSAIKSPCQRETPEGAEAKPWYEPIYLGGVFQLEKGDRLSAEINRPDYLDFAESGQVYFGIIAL

## CC(C)C[C@@H]1NC(=O)[C@H](Cc2ccc(O)cc2)NC(=O)[C@H](CCC(N)=O)NC(=O)[C@H](CO)NC(=O)[C@H](Cc2c[nH]c3ccccc23)NC(=O)[C@@H](NC(=O)[C@@H](N)Cc2ccc(O)cc2)CSSC[C@@H](C(=O)N[C@@H](Cc2ccc(O)cc2)C(=O)O)NC1=O [WP9QY, YC WSQYL CY]
[1]
  effect on TRANCE-induced marrow cultures: inhibits
[2]
  antagonism of the effects of TNF-binding to the TNF-α receptor: efficiently antagonized
[3]
  inhibition of osteoclastogenesis, in words: dose- and time-dependently inhibited
[3]; read-out: IC50 for inhibition of osteoclastogenesis, peptide tested at about 5 μM to about 500 μM
  IC50: 250 µM

B1: WP9QY (peptide)
peptide: YCWSQYLCY
modifications: disulfide 2-8
notes: Synthetic exocyclic peptide; also called WP9QY peptide; peptidomimetic (WP9QY)
[4]
  IC50: 5 µM

B2: OPG: naturally occurring secreted protein with homology to members of the TNF receptor family; positive control in the TRAP assay (protein, UniProt O00300 22-401, looked up)
Tumor necrosis factor …: ETFPPKYLHYDEETSHQLLCDKCPPGTYLKQHCTAKWKTVCAPCPDHYYTDSWHTSDECLYCSPVCKELQYVKQECNRTHNRVCECKEGRYLEIEFCLKHRSCPPGFGVVQAGTPERNTVCKRCPDGFFSNETSSKAPCRKHTNCSVFGLLLTQKGNATHDNICSGNSESTQKCGIDVTLCEEAFFRFAVPTKFTPNWLSVLVDNLPGTKVNAESVERIKRQHSSQEQTFQLLKLWKHQNKDQDIVKKIIQDIDLCENSVQRHIGHANLTFEQLRSLMESLPGKKVGAEDIEKTIKACKPSDQILKLLSLWRIKNGDQDTLKGLMHALKHSKTYHFPKTVTQSLKKTIRFLHSFTMYKLYQKLFLEMIGNQVQSVKISCL
[5]
  effect on osteoclastogenesis and associated bone resorption in vivo: inhibits osteoclastogenesis and associated bone resorption
